The text below walks through data of ChEMBL document CHEMBL1201862, “PubChem BioAssay data set” (2004).

Common to all, as to assay: inhibition of tumour cell growth, NCI panel, 48 h
The subject of test [1] is COLO 205.
In test [2] the test system is HL-60.
In test [3] the test system is HT-29.
For test [4], the system named is KM12.
Test [5] relates to LOX IMVI.
Test [6] relates to NCI-H460.
The subject of test [7] is NCI-H522.
Test [8] concerns OVCAR-3.
For test [9], the system named is OVCAR-5.
In test [10] the test system is SF-268.
Test [11] concerns SF-539.
Test [12] relates to SK-MEL-28.
Test [13] relates to SK-MEL-2.
For test [14], the system named is SK-OV-3.
Test [15] concerns SN12C.
The subject of test [16] is SNB-75.
The test system of test [17] is SW-620.
Test [18] concerns UACC-62.
The subject of test [19] is RXF 393.
The test system of test [20] is HOP-92.

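1) Cells in 96-well plates. 2) Compound, 48 h, 5 concentrations. 3) Linear interpolation between surrounding doses. 4) Unreached endpoint = highest concentration. Here, GI50 denotes the concentration required for 50% inhibition of growth.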 The source made the active and inactive calls. Cut-off read from the data, not from the text of the source: active = GI50 up to about 1.1 µM and inactive = higher.

For the molecule `CCOC(=O)CC(NC(=O)c1ccc(/N=N/N(C)C)cc1)C(=O)OCC` (centres undefined), the GI50 in test [1], in [2], in [3], in test [4], in test [5] and in [6] was > 100 µM (inactive) throughout. Besides, the GI50 in test [7], in test [8], in test [9], in [10], in test [11] and in test [12] was > 100 µM (inactive) throughout. The GI50 in test [13] was > 100 µM (inactive); in test [14], > 100 µM (inactive); in [15] it was > 100 µM (inactive); in test [16] it was 91.8 µM (inactive); in test [17] it was > 100 µM (inactive); in [18], 63.4 µM (inactive).

For the molecule `O=C1NC2(CCCCC2)C2CCCCCC12` (centres undefined), the GI50 in [2], in [3], in [4], in test [5], in test [6] and in [8] was > 100 µM (inactive) each time. Further, the GI50 in [9], in test [19], in [10], in test [11], in [12] and in test [14] was > 100 µM (inactive) throughout. Besides, the GI50 in [15], in [16], in test [17] and in test [18] was > 100 µM (inactive) each time.

For the molecule `Cc1c(Cl)cccc1NC(=O)/C=C/c1ccccc1`, the GI50 was > 100 µM (inactive) in [1]; > 100 µM (inactive) in [2]; 21 µM (inactive) in [20]; > 100 µM (inactive) in test [3]; 77.8 µM (inactive) in test [4]; > 100 µM (inactive) in test [5]. Also, the GI50 was > 100 µM (inactive) in test [6]; > 100 µM (inactive) in [7]; > 100 µM (inactive) in test [8]; > 100 µM (inactive) in test [9]; 74.1 µM (inactive) in test [10]; 43 µM (inactive) in [11]. The GI50 is 88.5 µM (inactive) in test [12]; > 100 µM (inactive) in test [13]; > 100 µM (inactive) in [14]; > 100 µM (inactive) in [15]; 22.8 µM (inactive) in [16]; > 100 µM (inactive) in [17]. In addition, the GI50 in test [18] was > 100 µM (inactive).

In the case of `O=C1OC(c2ccc(Cl)cc2)(c2ccc(Cl)cc2)c2c1ccc1ccccc21`, the GI50 in test [1] was > 100 µM (inactive); in test [2] it was 8.69 µM (inactive); in test [3] it was > 100 µM (inactive); in test [4] it was > 100 µM (inactive); in [5], > 100 µM (inactive); in test [6] it was > 100 µM (inactive). Besides, the GI50 in test [7] is 44.4 µM (inactive); in test [8], > 100 µM (inactive); in [9], > 100 µM (inactive); in test [19], 20.9 µM (inactive); in test [10] it was > 100 µM (inactive); in test [12], > 100 µM (inactive). Besides, the GI50 in test [13] was > 100 µM (inactive); in test [14], > 100 µM (inactive); in test [15] it was > 100 µM (inactive); in [16], 36.7 µM (inactive); in test [17], > 100 µM (inactive); in test [18] it was > 100 µM (inactive).

With `O=C(NNC(=S)NCc1ccccc1)C12CC3CC(CC(C3)C1)C2`, the GI50 was 20.4 µM (inactive) in [1]; 22.4 µM (inactive) in [2]; 45.3 µM (inactive) in [3]; 40.6 µM (inactive) in test [4]; 35.4 µM (inactive) in test [5]; 36.3 µM (inactive) in [6]. The GI50 in test [7] was > 100 µM (inactive); in [8] it was 54.6 µM (inactive); in [9], > 100 µM (inactive); in [19] it was 89.1 µM (inactive); in [10], 58.9 µM (inactive); in test [11], > 100 µM (inactive). Besides, the GI50 in test [12] is 67.6 µM (inactive); in test [13] it was 99.1 µM (inactive); in test [14], > 100 µM (inactive); in test [15], > 100 µM (inactive); in test [16], 49.4 µM (inactive); in test [17], 48 µM (inactive). In addition, in [18], the GI50 was 66.7 µM (inactive).

On to `COc1cc2c(cc1OC)C(Cl)C(c1cc(OC)c(OC)c(OC)c1)=C2Cl` (centres undefined), for which the GI50 was 17.5 µM (inactive) in test [1]; 13.6 µM (inactive) in test [2]; 4.73 µM (inactive) in test [20]; 14.4 µM (inactive) in test [3]; 13.1 µM (inactive) in test [5]; 14.4 µM (inactive) in test [6]. For the same molecule, the GI50 in [7] was 6.01 µM (inactive); in test [8], 17.1 µM (inactive); in [10], 16.6 µM (inactive); in test [11] it was 13.8 µM (inactive); in test [12] it was 16.4 µM (inactive); in [13], 15.5 µM (inactive). The GI50 in test [14] was 28.4 µM (inactive); in [15] it was 13.9 µM (inactive); in test [16], 2.69 µM (inactive); in test [17], 18.8 µM (inactive); in test [18] it was 13.6 µM (inactive).

As to `CC1=NC(C(=O)O)Cc2c1[nH]c1ccccc21` (centres undefined), the GI50 in test [1] is > 100 µM (inactive); in test [2] it was > 100 µM (inactive); in test [20] it was 14.6 µM (inactive); in test [3], > 100 µM (inactive); in [5], > 100 µM (inactive); in test [6] it was > 100 µM (inactive). The GI50 in test [7], in test [8], in test [10], in test [11], in test [12] and in [13] was > 100 µM (inactive) each time. In addition, the GI50 in test [14], in [15], in test [16], in test [17] and in [18] was > 100 µM (inactive) in each case.

Consider `O=C1CN(c2ccccc2)C(=O)C1C(=O)Nc1ccc(Cl)c(Cl)c1` (centres undefined), for which the GI50 in test [1] is 8.07 µM (inactive); in test [2], 0.667 µM (active); in test [20] it was 2.53 µM (inactive); in test [3], 3.68 µM (inactive); in [7], 2.05 µM (inactive); in test [8] it was 3.15 µM (inactive). Also, the GI50 was 30.4 µM (inactive) in test [9]; 6.32 µM (inactive) in test [10]; 3.85 µM (inactive) in [11]; 7.43 µM (inactive) in test [12]; 5.19 µM (inactive) in test [14]; 4.73 µM (inactive) in [15]. Moreover, the GI50 in [16] was 0.973 µM (active); in test [17], 1.21 µM (inactive); in test [18], 1.73 µM (inactive).
